Measured values published in patent publication US12421253B2 (Mirati Therapeutics, Inc., priority 2020, dated 2025).

What was measured:
KRas^WT = target: T1, KRas^WT (Homo sapiens, UniProt P01116); test: KRas binding assay (TR-FRET displacement of Cy5 labelled tracer)
T1 construct: […]; biotin (biotinylated); purchased Accelegan Inc

KRas^G12A = target: T2, KRas^G12A (Homo sapiens, UniProt P01116, G12A); test: as above
T2 construct: […]; biotin (biotinylated); purchased Accelegan Inc

KRas^G12D = target: T3, KRas^G12D (Homo sapiens, UniProt P01116, G12D); test: as above
T3 construct: […]; biotin (biotinylated); purchased Accelegan Inc

KRas^G12R = target: T4, KRas^G12R (Homo sapiens, UniProt P01116, G12R); test: as above
T4 construct: […]; biotin (biotinylated); purchased Accelegan Inc

KRas^G12S = target: T5, KRas^G12S (Homo sapiens, UniProt P01116, G12S); test: as above
T5 construct: […]; biotin (biotinylated); purchased Accelegan Inc

KRas^G12V = target: T6, KRas^G12V (Homo sapiens, UniProt P01116, G12V); test: as above
T6 construct: […]; biotin (biotinylated); purchased Accelegan Inc

KRas^G12C = KRas^G12C (Homo sapiens, UniProt P01116, G12C); test: biochemical
KRas^G13D = KRas^G13D (Homo sapiens, UniProt P01116, G13D); test: biochemical
KRas^Q61H = KRas^Q61H (Homo sapiens, UniProt P01116, Q61H); test: biochemical
Chain of KRas^Q61H (P01116 1-169 isoform P01116-2 Q61H): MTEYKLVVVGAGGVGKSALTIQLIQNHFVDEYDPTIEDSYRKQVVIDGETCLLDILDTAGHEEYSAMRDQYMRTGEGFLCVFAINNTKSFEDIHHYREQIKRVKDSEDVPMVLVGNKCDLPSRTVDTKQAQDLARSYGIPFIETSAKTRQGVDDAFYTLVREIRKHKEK

T3 sequence (P01116 1-169 isoform P01116-2 G12D): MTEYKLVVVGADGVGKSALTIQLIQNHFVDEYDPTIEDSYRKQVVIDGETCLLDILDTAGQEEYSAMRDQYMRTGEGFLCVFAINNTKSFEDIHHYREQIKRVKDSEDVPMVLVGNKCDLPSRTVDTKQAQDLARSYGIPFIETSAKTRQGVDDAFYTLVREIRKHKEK
Chain of KRas^G12C (P01116 1-169 isoform P01116-2 G12C): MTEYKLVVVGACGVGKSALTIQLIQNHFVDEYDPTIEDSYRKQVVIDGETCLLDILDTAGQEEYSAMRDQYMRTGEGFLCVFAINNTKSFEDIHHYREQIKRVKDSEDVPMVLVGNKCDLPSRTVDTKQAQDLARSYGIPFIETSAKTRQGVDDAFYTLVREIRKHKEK
T5 sequence (P01116 1-169 isoform P01116-2 G12S): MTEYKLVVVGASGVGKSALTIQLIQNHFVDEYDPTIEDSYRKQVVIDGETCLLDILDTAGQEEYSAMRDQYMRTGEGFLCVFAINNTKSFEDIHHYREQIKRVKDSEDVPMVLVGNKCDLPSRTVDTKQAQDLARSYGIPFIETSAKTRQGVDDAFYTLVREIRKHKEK
T6 sequence (P01116 1-169 isoform P01116-2 G12V): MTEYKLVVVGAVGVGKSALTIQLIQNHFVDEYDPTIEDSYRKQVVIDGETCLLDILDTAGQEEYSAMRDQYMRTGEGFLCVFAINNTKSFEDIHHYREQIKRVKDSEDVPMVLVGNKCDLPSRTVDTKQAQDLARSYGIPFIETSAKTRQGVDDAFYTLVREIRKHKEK
Chain of KRas^G13D (P01116 1-169 isoform P01116-2 G13D): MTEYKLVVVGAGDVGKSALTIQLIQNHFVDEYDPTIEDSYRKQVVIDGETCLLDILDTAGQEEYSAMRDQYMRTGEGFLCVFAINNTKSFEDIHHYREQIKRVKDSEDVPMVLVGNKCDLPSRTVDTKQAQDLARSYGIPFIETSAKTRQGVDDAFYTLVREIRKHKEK
T1 sequence (P01116 1-169 isoform P01116-2): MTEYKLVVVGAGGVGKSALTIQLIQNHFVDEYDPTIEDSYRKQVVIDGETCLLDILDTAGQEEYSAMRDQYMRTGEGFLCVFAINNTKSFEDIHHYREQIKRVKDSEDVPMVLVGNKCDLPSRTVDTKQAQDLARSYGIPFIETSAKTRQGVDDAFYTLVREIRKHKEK
T2 sequence (P01116 1-169 isoform P01116-2 G12A): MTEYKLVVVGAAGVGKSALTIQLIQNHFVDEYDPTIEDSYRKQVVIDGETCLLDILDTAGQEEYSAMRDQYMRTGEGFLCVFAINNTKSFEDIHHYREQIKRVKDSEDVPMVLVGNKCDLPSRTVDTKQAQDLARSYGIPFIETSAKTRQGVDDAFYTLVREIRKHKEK
T4 sequence (P01116 1-169 isoform P01116-2 G12R): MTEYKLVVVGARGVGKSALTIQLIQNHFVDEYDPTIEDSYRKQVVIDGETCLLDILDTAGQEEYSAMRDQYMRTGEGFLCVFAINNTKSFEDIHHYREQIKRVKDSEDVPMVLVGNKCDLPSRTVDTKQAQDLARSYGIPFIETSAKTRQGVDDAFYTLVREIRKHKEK

IC50 (KRas^WT) | IC50 (KRas^G12A) | IC50 (KRas^G12D) | IC50 (KRas^G12R) | IC50 (KRas^G12S) | IC50 (KRas^G12V) | IC50 (KRas^G12C) | IC50 (KRas^G13D) | IC50 (KRas^Q61H) | Structure (SMILES)
1560 nM | 1540 nM | 3390 nM | 1630 nM | 1990 nM | 868 nM | 969 nM | 3280 nM | 2300 nM | CCc1cccc2cccc(N3CCc4c(nc(OCC56CCCN5CCC6)nc4NCc4nnc(N)o4)C3)c12 [Example 136, 5-(((7-(8-ethylnaphthalen-1-yl)-2-((tetrahydro-1H-pyrrolizin-7a(5H)-yl)methoxy)-5,6,7,8-tetrahydropyrido[3,4-d]pyrimidin-4-yl)amino)methyl)-1,3,4-oxadiazol-2-amine]
4810 nM | 5510 nM | 9850 nM | 4650 nM | 5130 nM | 7320 nM | 4150 nM | 4800 nM | 4580 nM | CCc1cccc2cccc(N3CCc4c(nc(OCC56CCCN5CCC6)nc4N4CCCC(c5nnc(CO)n5C)C4)C3)c12 (stereo not drawn) [Example 166, (5-(1-(7-(8-ethylnaphthalen-1-yl)-2-((tetrahydro-1H-pyrrolizin-7a(5H)-yl)methoxy)-5,6,7,8-tetrahydropyrido[3,4-d]pyrimidin-4-yl)piperidin-3-yl)-4-methyl-4H-1,2,4-triazol-3-yl)methanol]
8430 nM | 7280 nM | 1730 nM | 4660 nM | 4170 nM | 3360 nM | 3510 nM | 6440 nM | 8150 nM | CCc1cccc2cccc(N3CCc4c(nc(OCC56CCCN5CCC6)nc4NC4CCNC(=O)C4)C3)c12 (stereo not drawn) [Example 153, 4-((7-(8-ethylnaphthalen-1-yl)-2-((tetrahydro-1H-pyrrolizin-7a(5H)-yl)methoxy)-5,6,7,8-tetrahydropyrido[3,4-d]pyrimidin-4-yl)amino)piperidin-2-one]
17300 nM | 24300 nM | 6300 nM | 9040 nM | 10600 nM | 1950 nM | 7020 nM | 15500 nM | 19900 nM | CCc1cccc2cccc(N3CCc4c(nc(OCC56CCCN5CCC6)nc4NCc4nc5ncccc5o4)C3)c12 [Example 157, 7-(8-ethylnaphthalen-1-yl)-N-(oxazolo[4,5-b]pyridin-2-ylmethyl)-2-((tetrahydro-1H-pyrrolizin-7a(5H)-yl)methoxy)-5,6,7,8-tetrahydropyrido[3,4-d]pyrimidin-4-amine]

The remaining lines, values behind:

Structure (SMILES) | IC50 (KRas^WT) | IC50 (KRas^G12A) | IC50 (KRas^G12D) | IC50 (KRas^G12R) | IC50 (KRas^G12S) | IC50 (KRas^G12V) | IC50 (KRas^G12C) | IC50 (KRas^G13D) | IC50 (KRas^Q61H)
CCc1cccc2cccc(N3CCc4c(nc(OCC56CCCN5CCC6)nc4N4CCCC(N5CCCS5(=O)=O)C4)C3)c12 (stereo not drawn) [Example 85, 2-(1-(7-(8-ethylnaphthalen-1-yl)-2-((tetrahydro-1H-pyrrolizin-7a(5H)-yl)methoxy)-5,6,7,8-tetrahydropyrido[3,4-d]pyrimidin-4-yl)piperidin-3-yl)isothiazolidine 1,1-dioxide] | 140 nM | 223 nM | 1030 nM | 399 nM | 263 nM | 491 nM | 274 nM | 186 nM | 213 nM
CCc1cccc2cccc(N3CCc4c(nc(OCC56CCCN5CCC6)nc4N4C[C@@H]5C(=O)NC(=O)[C@@H]5C4)C3)c12 [Example 11, (3aR,6aS)-5-(7-(8-ethylnaphthalen-1-yl)-2-((tetrahydro-1H-pyrrolizin-7a(5H)-yl)methoxy)-5,6,7,8-tetrahydropyrido[3,4-d]pyrimidin-4-yl)tetrahydropyrrolo[3,4-c]pyrrole-1,3(2H,3aH)-dione] | 51 nM | 45 nM | 22 nM | 42 nM | 15 nM | 18 nM | 41 nM | 42 nM | 50 nM
CCc1cccc2cccc(N3CCc4c(nc(OCC56CCCN5CCC6)nc4N4CCOCC(O)C4)C3)c12 (stereo not drawn) [Example 6, 4-(7-(8-ethylnaphthalen-1-yl)-2-((tetrahydro-1H-pyrrolizin-7a(5H)-yl)methoxy)-5,6,7,8-tetrahydropyrido[3,4-d]pyrimidin-4-yl)-1,4-oxazepan-6-ol] | 104 nM | 86 nM | 310 nM | 71 nM | 100 nM | 118 nM | 88 nM | 159 nM | 132 nM
CCc1cccc2cccc(N3CCc4c(nc(OCC56CCCN5CCC6)nc4N4CCCC(O)CC4)C3)c12 (stereo not drawn) [Example 7, 1-(7-(8-ethylnaphthalen-1-yl)-2-((tetrahydro-1H-pyrrolizin-7a(5H)-yl)methoxy)-5,6,7,8-tetrahydropyrido[3,4-d]pyrimidin-4-yl)azepan-4-ol] | 143 nM | 92 nM | 121 nM | 50 nM | 107 nM | 68 nM | 89 nM | 143 nM | 173 nM
O=C1NC(=O)C2CN(c3nc(OCC45CCCN4CCC5)nc4c3CCN(c3cccc5cccc(Br)c35)C4)CC12 (stereo not drawn) [Example 78, 5-(7-(8-bromonaphthalen-1-yl)-2-((hexahydro-1H-pyrrolizin-7a-yl)methoxy)-5,6,7,8-tetrahydropyrido[3,4-d]pyrimidin-4-yl)tetrahydropyrrolo[3,4-c]pyrrole-1,3(2H,3aH)-dione] | 73 nM | 59 nM | 30 nM | 81 nM | 22 nM | 41 nM | 80 nM | 67 nM | 112 nM
CCc1cccc2cccc(N3CCc4c(nc(OCC56CCCN5CCC6)nc4N4CCCCCCC4)C3)c12 [Example 54, 4-(azocan-1-yl)-7-(8-ethylnaphthalen-1-yl)-2-((hexahydro-1H-pyrrolizin-7a-yl)methoxy)-5,6,7,8-tetrahydropyrido[3,4-d]pyrimidine] | 943 nM | 767 nM | 1460 nM | 663 nM | 924 nM | 707 nM | 755 nM | 1080 nM | 1230 nM
CCc1cccc2cccc(N3CCc4c(nc(OCC56CCCN5CCC6)nc4N4CC(C)CC(CO)C4)C3)c12 (stereo not drawn) [Example 133, (1-(7-(8-ethylnaphthalen-1-yl)-2-((tetrahydro-1H-pyrrolizin-7a(5H)-yl)methoxy)-5,6,7,8-tetrahydropyrido[3,4-d]pyrimidin-4-yl)-5-methylpiperidin-3-yl)methanol] | 1340 nM | 1020 nM | 945 nM | 781 nM | 1020 nM | 936 nM | 871 nM | 1500 nM | 1440 nM
CCc1cccc2cccc(N3CCc4c(nc(OCC56CCCN5CCC6)nc4N4CCCC(c5nc(=O)[nH][nH]5)C4)C3)c12 (stereo not drawn) [Example 104, 5-(1-(7-(8-ethylnaphthalen-1-yl)-2-((tetrahydro-1H-pyrrolizin-7a(5H)-yl)methoxy)-5,6,7,8-tetrahydropyrido[3,4-d]pyrimidin-4-yl)piperidin-3-yl)-1,2-dihydro-3H-1,2,4-triazol-3-one] | 1590 nM | 755 nM | 4200 nM | 365 nM | 1120 nM | 852 nM | 894 nM | 1800 nM | 1980 nM
